Source: ChEMBL document CHEMBL1132484, “New alpha-substituted succinate-based hydroxamic acids as TNFalpha convertase inhibitors” (J Med Chem, 1999)

Assays:
[1] = target: Neutrophil collagenase (Homo sapiens, UniProt P22894); assay: Inhibition of MMP-8 (matrix metalloprotease-8)
[2] = target: T1, Disintegrin and metalloproteinase domain-containing protein 17 (Homo sapiens, UniProt P78536); assay: Inhibitory activity against Tumor necrosis factor alpha-converting enzyme (TACE) in blood.; format: tissue-based
[3] = target: T1, Disintegrin and metalloproteinase domain-containing protein 17; assay: Inhibition of TNF(tumor necrosis factor) in human blood; format: functional
[4] = target: T2, Interstitial collagenase (Homo sapiens, UniProt P03956); assay: Inhibitory activity against MMP-1 (Matrix metalloprotease-1)
T2 sequence (P03956 whole entry): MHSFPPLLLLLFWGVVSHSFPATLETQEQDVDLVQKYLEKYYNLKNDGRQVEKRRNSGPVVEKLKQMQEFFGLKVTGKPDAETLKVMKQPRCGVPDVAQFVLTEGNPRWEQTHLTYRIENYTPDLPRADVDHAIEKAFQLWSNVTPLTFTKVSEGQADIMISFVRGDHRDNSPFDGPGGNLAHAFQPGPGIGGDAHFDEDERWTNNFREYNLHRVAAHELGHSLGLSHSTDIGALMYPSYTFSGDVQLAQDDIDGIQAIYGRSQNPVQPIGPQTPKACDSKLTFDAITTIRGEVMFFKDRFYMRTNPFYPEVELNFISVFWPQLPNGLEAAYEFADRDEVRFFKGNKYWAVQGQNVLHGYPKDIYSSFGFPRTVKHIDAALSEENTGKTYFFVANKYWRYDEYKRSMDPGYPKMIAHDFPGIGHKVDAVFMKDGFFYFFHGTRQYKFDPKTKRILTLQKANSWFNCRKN

T1 sequence (P78536 whole entry, the tested form may be a part): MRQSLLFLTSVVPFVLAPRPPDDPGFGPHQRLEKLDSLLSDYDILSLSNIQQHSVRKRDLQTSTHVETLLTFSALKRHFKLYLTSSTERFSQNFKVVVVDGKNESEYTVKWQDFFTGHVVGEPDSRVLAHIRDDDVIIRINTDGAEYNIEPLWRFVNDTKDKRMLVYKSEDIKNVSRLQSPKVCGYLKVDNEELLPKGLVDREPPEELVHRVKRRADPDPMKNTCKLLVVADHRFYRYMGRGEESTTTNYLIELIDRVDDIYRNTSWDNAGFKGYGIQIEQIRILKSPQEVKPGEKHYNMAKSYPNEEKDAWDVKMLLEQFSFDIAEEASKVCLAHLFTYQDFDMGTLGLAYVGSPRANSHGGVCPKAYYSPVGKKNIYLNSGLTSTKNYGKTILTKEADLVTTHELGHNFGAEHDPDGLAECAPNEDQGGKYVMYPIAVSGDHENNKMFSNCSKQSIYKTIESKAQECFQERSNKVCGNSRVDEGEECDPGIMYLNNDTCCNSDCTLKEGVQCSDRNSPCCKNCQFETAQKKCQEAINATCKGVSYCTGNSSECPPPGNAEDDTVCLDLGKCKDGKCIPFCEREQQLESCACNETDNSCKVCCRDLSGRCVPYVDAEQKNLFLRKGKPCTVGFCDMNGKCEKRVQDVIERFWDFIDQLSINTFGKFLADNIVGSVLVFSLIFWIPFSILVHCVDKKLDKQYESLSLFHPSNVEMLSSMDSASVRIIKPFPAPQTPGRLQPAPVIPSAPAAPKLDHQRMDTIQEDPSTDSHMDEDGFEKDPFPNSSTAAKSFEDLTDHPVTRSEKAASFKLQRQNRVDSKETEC
Neutrophil collagenase, sequence (P22894 whole entry, the tested form may be a part): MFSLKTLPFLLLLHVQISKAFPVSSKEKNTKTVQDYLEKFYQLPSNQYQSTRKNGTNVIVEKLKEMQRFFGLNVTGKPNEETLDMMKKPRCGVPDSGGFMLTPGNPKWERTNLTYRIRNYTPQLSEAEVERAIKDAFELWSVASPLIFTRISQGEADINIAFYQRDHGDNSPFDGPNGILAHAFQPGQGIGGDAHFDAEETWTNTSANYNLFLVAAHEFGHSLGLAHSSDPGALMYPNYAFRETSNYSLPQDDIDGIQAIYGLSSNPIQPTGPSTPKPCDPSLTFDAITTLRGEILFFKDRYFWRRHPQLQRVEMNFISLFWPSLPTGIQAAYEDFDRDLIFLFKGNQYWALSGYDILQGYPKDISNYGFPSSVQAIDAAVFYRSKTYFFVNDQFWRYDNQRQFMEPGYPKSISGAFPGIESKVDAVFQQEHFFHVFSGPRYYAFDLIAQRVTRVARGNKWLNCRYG

| SMILES | IC50 [1] | IC50 [2] | IC50 [3] | IC50 [4] |
| --- | --- | --- | --- | --- |
| CNC(=O)[C@@H](NC(=O)C(CC(C)C)C(C(=O)NO)C1CCCC1)C(C)(C)C (single isomer, unassigned) | 20 nM | 1 nM | 8800 nM | 4 nM |
| CNC(=O)[C@@H](NC(=O)[C@H](CC(C)C)[C@H](OCc1ccc2c(ccc(=O)n2C)c1)C(=O)NO)C(C)(C)C |  | 1 nM | 1440 nM | 0.88 nM |
| CNC(=O)[C@@H](NC(=O)[C@H](CC(C)C)[C@H](NS(=O)(=O)c1cccc2cccnc12)C(=O)NO)C(C)(C)C |  | 4.2 nM | 8100 nM | 1.1 nM |
| CNC(=O)[C@@H](NC(=O)[C@@H](CC(=O)NO)CC(C)C)C(C)(C)C [RO-319790] |  | 20 nM | > 50000 nM | 10 nM |
| CNC(=O)[C@@H](NC(=O)[C@H](CC(C)C)[C@H](NS(=O)(=O)c1ccc2ncccc2c1)C(=O)NO)C(C)(C)C |  | 1.6 nM | 440 nM | 1.2 nM |
| CNC(=O)[C@@H](NC(=O)[C@H](CC(C)C)[C@H](NCc1cccc2cccnc12)C(=O)NO)C(C)(C)C | 0.2 nM | 0.23 nM | 34000 nM | 1.7 nM |
| CNC(=O)[C@@H](NC(=O)[C@H](CC(C)C)[C@H](SCc1cccc2cccnc12)C(=O)NO)C(C)(C)C |  | 0.8 nM | 6200 nM | 2.8 nM |
| CNC(=O)[C@@H](NC(=O)[C@H](CC(C)C)[C@H](NS(=O)(=O)c1ccc2ncnc(O)c2c1)C(=O)NO)C(C)(C)C | 3.7 nM | 0.57 nM | 280 nM | 1.3 nM |
| CNC(=O)[C@@H](NC(=O)[C@H](CC(C)C)[C@H](NS(=O)(=O)c1cccc2cnccc12)C(=O)NO)C(C)(C)C |  | 3.1 nM | 1100 nM | 2.6 nM |
| CNC(=O)[C@@H](NC(=O)[C@H](CC(C)C)[C@@H](C(=O)NO)N(C)S(=O)(=O)c1cccc2cccnc12)C(C)(C)C |  | 4.4 nM | 4500 nM | 2.4 nM |
| CNC(=O)[C@@H](NC(=O)[C@H](CC(C)C)[C@@H](C(=O)NO)N1CCOCC1)C(C)(C)C |  | 3.4 nM | 3000 nM | 2.2 nM |
| C=CCC(C(=O)NO)C(CC(C)C)C(=O)N[C@@H](Cc1ccccc1)C(=O)NC (single isomer, unassigned) | 3 nM | 0.2 nM | 2300 nM |  |
